The subject of data set [1] is Botryotinia fuckeliana (Botrytis cinerea). Description: Botryotinia fuckeliana (Botrytis cinerea) / liquid culture (gray mould). Format: cell-based. The settings on record: growth inhibition determined photometrically 3-4 days after application, vs untreated control, read-out: disease control.
For data set [2], the system named is Fusarium culmorum. Put plainly: microbe, parasite or virus in culture. Format: cell-based. The following applies: 72 h, read-out: disease control.
Data set [3] has as its system Gaeumannomyces graminis. Description: Gaeumannomyces graminis / liquid culture (take-all of cereals). Format: cell-based. The settings on record: growth inhibition determined photometrically 4-5 days after application, vs untreated control, read-out: disease control.
Data set [4] has as its system Glomerella lagenarium (Colletotrichum lagenarium). Put plainly: Glomerella lagenarium (Colletotrichum lagenarium) / liquid culture (anthracnose). The following applies: Colletotrichum orbiculare, growth inhibition measured photometrically 3-4 days after application, vs untreated control, read-out: disease control. Format: cell-based.
For data set [5], the system named is Monographella nivalis (Microdochium nivale). Description: Monographella nivalis (Microdochium nivale) / liquid culture (foot rot cereals). Format: cell-based. The settings on record: 96 h, growth inhibition determined photometrically 4-5 days after application, vs untreated control, read-out: disease control.
Data set [6] relates to Magnaporthe grisea (Pyricularia oryzae). Put plainly: microbe, parasite or virus in culture. The format is cell-based. The following applies: 72 h, read-out: control of Magnaporthe grisea.
For data set [7], the system named is Sclerotinia sclerotiorum. Description: Sclerotinia sclerotiorum / liquid culture (cottony rot). The following applies: 72 h, read-out: control of Sclerotinia sclerotiorum.
Description: Sclerotinia sclerotiorum/Liquid Culture (Cottony Rot)
Mycelia fragments of a newly grown liquid culture of the fungus are directly mixed into nutrient broth (Vogels broth). After placing a (DMSO) solution of test compound into a microtiter plate (96-well format) the nutrient broth containing the fungal material is added. The test plates are incubated at 24° C. and the inhibition of growth is determined photometrically 3-4 days after application.
Data set [8] deals with Pyrenophora teres. Description: Pyrenophora teres / liquid culture (net blotch). The format is cell-based. The following applies: growth inhibition determined photometrically 3-4 days after application, vs untreated control.

Each structure is given as a SMILES string.

`Cc1c(Br)ccc2c1ncn2C1=NC(C)(C)C(C)(C)c2c(F)cccc21` [E-41] displayed a melting point of 122 to 124 °C. The inhibition of growth at 200 ppm in data set [1] is at least 80%. The inhibition of growth at 200 ppm in data set [2] was at least 80%. In addition, the inhibition of growth at 200 ppm in data set [3] is at least 80%. In data set [4], the inhibition of growth at 200 ppm is at least 80%. Moreover, the inhibition of growth at 200 ppm in [5] is at least 80%. Further, the inhibition of growth at 20 ppm in [6] is at least 80%. In addition, the inhibition of growth at 20 ppm in data set [7] is at least 80%.

In the case of `Cc1cccc2c1ncn2C1=NC(C)(C)C(C)(C)c2c(F)cccc21` [Example 1], the melting point was 118 to 120 °C.

On to `CC1(C)N=C(n2cnc3c(C4CC4)cccc32)c2cccc(F)c2C1(C)C` [E-8], for which the inhibition of growth at 200 ppm in [1], in data set [3], in data set [4] and in [5] was at least 80% throughout. In data set [6], the inhibition of growth at 20 ppm is at least 80%.

`Cc1c(Cl)ccc2c1ncn2C1=NC(C)(C)C(C)(C)c2c(F)cccc21` [E-42] came in with a melting point of 102 to 103 °C. In addition, the inhibition of growth at 200 ppm in [1] was at least 80%. Moreover, the inhibition of growth at 200 ppm in data set [2] is at least 80%. Moreover, in data set [4], the inhibition of growth at 200 ppm was at least 80%. In addition, the inhibition of growth at 200 ppm in [5] was at least 80%. Besides, in data set [6], the inhibition of growth at 20 ppm was at least 80%. Also, the inhibition of growth at 20 ppm in [7] is at least 80%.

With `Cc1cccc2c1ncn2C1=NC2(CC2)C2(CC2)c2ccccc21` [E-61], the inhibition of growth at 200 ppm in data set [1], in data set [2], in data set [3], in [4] and in data set [5] was at least 80% each time. Moreover, the inhibition of growth at 20 ppm in data set [6] and in data set [7] was at least 80% each time.

`CC1(C)N=C(n2cnc3cc(Cl)c(Cl)cc32)c2cccc(F)c2C1(C)C` [E-39] had a melting point of 126 to 127 °C. Also, in [1], the inhibition of growth at 200 ppm is at least 80%. Further, the inhibition of growth at 200 ppm in [4] was at least 80%. In addition, the inhibition of growth at 200 ppm in data set [5] was at least 80%. The inhibition of growth at 20 ppm in data set [6] is at least 80%. In addition, the inhibition of growth at 20 ppm in data set [7] was at least 80%.

Consider `CC1(C)N=C(n2cnc3ccccc32)c2ccccc2C12CC2` [E-3, 1′-(benzimidazol-1-yl)-3′,3′-dimethyl-spiro(cyclopropane-1,4′-isoquinoline)], for which the inhibition of growth at 200 ppm in data set [1], in data set [3] and in data set [4] was at least 80% in each case.

For `CC1(C)N=C(n2cnc3c(Cl)cccc32)c2ccc(Cl)cc2C1(F)F` [E-37], the melting point was in the range of 197 to 200 °C. In addition, the inhibition of growth at 200 ppm in [1] was at least 80%. The inhibition of growth at 200 ppm in data set [3] is at least 80%. In addition, the inhibition of growth at 200 ppm in [5] was at least 80%. Further, the inhibition of growth at 20 ppm in data set [6] was at least 80%. The inhibition of growth at 20 ppm in [7] was at least 80%.

Regarding `Cc1ccc2c(ncn2C2=NC(C)(C)C(F)(F)c3ccccc32)c1Cl` [E-31], the inhibition of growth at 200 ppm in data set [1], in data set [2], in data set [3], in data set [4] and in [5] was at least 80% throughout. The inhibition of growth at 20 ppm in data set [6] and in data set [7] was at least 80% throughout.

`COC(=O)c1cccc2c1ncn2C1=NC(C)(C)C(C)(C)c2c(F)cccc21` [E-24] yielded a melting point of 178 to 179 °C. Also, in data set [6], the inhibition of growth at 20 ppm was at least 80%.

In the case of `CC1(C)N=C(n2cnc3ccccc32)c2cccc(F)c2C1(C)C` [E-2], the inhibition of growth at 200 ppm in data set [1], in [2], in [4] and in data set [5] was at least 80% throughout.

As for `Cc1cccc2c1ncn2C1=NCC(C)(C)c2ccccc21` [E-44], the inhibition of growth at 200 ppm in data set [1], in data set [4] and in data set [5] was at least 80% in each case. In addition, the inhibition of growth at 20 ppm in data set [6] and in data set [7] was at least 80% throughout.

For `CC1(C)N=C(n2cnc3c(Cl)cccc32)c2ccccc2C1=O` [E-29], the inhibition of growth at 200 ppm in data set [1] was at least 80%.

Consider `Cc1cccc2c1ncn2C1=NC(C)(C)Cc2c(Cl)cccc21` [E-40], for which the inhibition of growth at 200 ppm in data set [1], in data set [4] and in data set [5] was at least 80% each time. The inhibition of growth at 20 ppm in data set [6] and in [7] was at least 80% each time.

On to `Cc1ccc2c(ncn2C2=NC(C)(C)C(F)(F)c3cc(Cl)ccc32)c1C` [E-49], for which the inhibition of growth at 200 ppm in [1], in [2], in data set [3], in [4] and in data set [5] was at least 80% in each case. Moreover, in data set [6], the inhibition of growth at 20 ppm is at least 80%.

As to `CC1(C)N=C(n2cnc3c(C(F)(F)F)cccc32)c2cccc(F)c2C1(C)C` [E-5], the inhibition of growth at 200 ppm in data set [1], in data set [4] and in [5] was at least 80% each time. Further, the inhibition of growth at 20 ppm in [6] and in [8] was at least 80% each time.

Turning to `C=C(C)c1cccc2c1ncn2C1=NC(C)(C)C(C)(C)c2c(F)cccc21` [E-11], the inhibition of growth at 200 ppm in data set [1], in data set [4] and in data set [5] was at least 80% throughout. The inhibition of growth at 20 ppm in [6] and in data set [8] was at least 80% throughout.

Regarding `Cc1cccc2c1ncn2C1=NC2(CC2)Cc2ccccc21` [E-59], the inhibition of growth at 200 ppm in [1], in [2], in data set [3], in data set [4] and in data set [5] was at least 80% each time. In addition, the inhibition of growth at 20 ppm in data set [6] is at least 80%.

The molecule `Cc1cccc2c1ncn2C1=NC(C)(C)C(C)(C)c2c1ccc(Cl)c2F` [E-45] had a melting point of 147 to 151 °C. The inhibition of growth at 200 ppm in [1] is at least 80%. The inhibition of growth at 200 ppm in data set [2] was at least 80%. Further, in [4], the inhibition of growth at 200 ppm is at least 80%. For the same molecule, in data set [5], the inhibition of growth at 200 ppm is at least 80%. In addition, the inhibition of growth at 20 ppm in [6] is at least 80%. In addition, the inhibition of growth at 20 ppm in [7] was at least 80%.

With `Cc1cccc2c1ncn2C1=NCC2(CCCCC2)c2ccccc21` [E-52], the inhibition of growth at 200 ppm in [1] is at least 80%. The inhibition of growth at 20 ppm in data set [6] is at least 80%.

Molecule `Cc1ccc2c(ncn2C2=NC3(CC3)C3(CC3)c3ccccc32)c1C` [E-58] showed a melting point of 141 to 143 °C. For the same molecule, in data set [1], the inhibition of growth at 200 ppm is at least 80%. The inhibition of growth at 200 ppm in [2] is at least 80%. The inhibition of growth at 200 ppm in data set [3] is at least 80%. Also, in data set [4], the inhibition of growth at 200 ppm is at least 80%. Moreover, the inhibition of growth at 200 ppm in [5] was at least 80%. Moreover, the inhibition of growth at 20 ppm in data set [6] is at least 80%. Moreover, the inhibition of growth at 20 ppm in data set [7] is at least 80%.

Take `Cc1cccc2c1ncn2C1=NC(C)(C)C(C)(C)c2c1ccc(F)c2F` [E-46]: the melting point lay within 122 to 125 °C. In addition, the inhibition of growth at 200 ppm in data set [1] was at least 80%. Besides, the inhibition of growth at 200 ppm in [2] is at least 80%. The inhibition of growth at 200 ppm in [4] is at least 80%. Moreover, the inhibition of growth at 200 ppm in [5] was at least 80%. Also, in [6], the inhibition of growth at 20 ppm is at least 80%. The inhibition of growth at 20 ppm in data set [7] is at least 80%.

On to `Cc1c(F)ccc2c1ncn2C1=NC(C)(C)C(F)(F)c2cc(Cl)ccc21` [E-48], for which the inhibition of growth at 200 ppm in data set [1], in data set [2], in [3] and in data set [5] was at least 80% each time. Moreover, in [6], the inhibition of growth at 20 ppm is at least 80%.

Take `Cc1cccc2c1ncn2C1=NC(C)(C)C(F)(F)c2cc(Cl)ccc21` [E-47]: the inhibition of growth at 200 ppm in data set [1], in [2], in [3] and in data set [5] was at least 80% each time. Further, the inhibition of growth at 20 ppm in data set [6] is at least 80%.

The molecule `Cc1cccc2c1ncn2C1=NC(C)(C)Cc2c(Br)cccc21` [E-38] gave a melting point of 52 to 54 °C. In addition, the inhibition of growth at 200 ppm in [1] is at least 80%. The inhibition of growth at 200 ppm in data set [4] is at least 80%. In addition, in data set [5], the inhibition of growth at 200 ppm is at least 80%. In [6], the inhibition of growth at 20 ppm is at least 80%. Besides, in data set [7], the inhibition of growth at 20 ppm is at least 80%.

For `CC1(C)N=C(n2cnc3c4c(ccc32)CCC4)c2cccc(F)c2C1(C)C` [E-51], the melting point was in the range of 177 to 178 °C. In addition, the inhibition of growth at 200 ppm in data set [1] is at least 80%. Also, the inhibition of growth at 200 ppm in [2] was at least 80%. Moreover, the inhibition of growth at 200 ppm in data set [3] was at least 80%. For the same molecule, the inhibition of growth at 200 ppm in data set [5] was at least 80%. The inhibition of growth at 20 ppm in data set [6] is at least 80%.

`Cc1cccc2c1ncn2C1=NC2(CCC2)Cc2ccccc21` [E-43] showed a melting point of 132 to 133 °C. Also, in data set [1], the inhibition of growth at 200 ppm is at least 80%. Further, the inhibition of growth at 200 ppm in data set [4] was at least 80%. The inhibition of growth at 200 ppm in data set [5] is at least 80%. Besides, the inhibition of growth at 20 ppm in data set [6] was at least 80%. Besides, in data set [7], the inhibition of growth at 20 ppm was at least 80%.

For the molecule `Cc1cccc2c1ncn2C1=NC(C)(C)C(F)(F)c2ccccc21`, the melting point is 142 to 149 °C.

Source of the values: US10273221B2, “Microbiocidal heterobicyclic derivatives” (Syngenta Participations AG, priority 2015, dated 2019).
